Source: ChEMBL document CHEMBL3885861, “Open TG-GATES”

Species: Rattus norvegicus
Assay: Open TG-GATES - Regimen: Single
Assay type: toxicity, organism-based, Sprague-Dawley
Set-up: regimen Single, gender Male, age 6 weeks
Conditions: in vivo, iv, route intravenous injection; for KIDNEY_L / KIDNEY_R / KIDNEY_TOTAL: tissue Kidney; for LIVER: tissue Liver
[1] = 1 mg/kg, 3 h, tissue Blood, dose level Low
[2] = 1 mg/kg, 3 h, tissue Plasma, dose level Low
[3] = 1 mg/kg, 6 h, tissue Blood, dose level Low
[4] = 1 mg/kg, 6 h, tissue Plasma, dose level Low
[5] = 1 mg/kg, 9 h, tissue Blood, dose level Low
[6] = 1 mg/kg, 9 h, tissue Plasma, dose level Low
[7] = 1 mg/kg, 24 h, tissue Blood, dose level Low
[8] = 1 mg/kg, 24 h, tissue Plasma, dose level Low

For COc1cccc2c1C(=O)c1c(O)c3c(c(O)c1C2=O)C[C@@](O)(C(=O)CO)C[C@@H]3O[C@H]1C[C@H](N)[C@H](O)[C@H](C)O1 [DOXORUBICIN], the TERMINAL_BW (1 mg/kg, 3 h, dose level Low) was 214.5 g, the Bas [1] was 0% and the Eos [1] was 1%. The Fbg [1] was 272 mg/dL, the Hb [1] was 13.4 g/dL and the Ht [1] was 38.5%. For the same compound, the Lym [1] was 77%, the MCH [1] was 21.8 pg and the MCHC [1] was 34.8%. It also gave an MCV [1] of 62.7 fL, a Mono [1] of 3% and a PT [1] of 16.4 s. For the same compound, the Plat [1] was 126.6 x10_4/uL, the RBC [1] was 614.2 x10_4/ul and the Ret [1] was 6.6%. For the same compound, the KIDNEY_L (1 mg/kg, 3 h, dose level Low) was 0.9 g, the KIDNEY_R (1 mg/kg, 3 h, dose level Low) was 0.9 g and the KIDNEY_TOTAL (1 mg/kg, 3 h, dose level Low) was 1.9 g. For the same compound, the LIVER (1 mg/kg, 3 h, dose level Low) was 9.4 g, the ALP [2] was 1599.2 IU/L and the ALT [2] was 44 IU/L. It also gave an AST [2] of 86.6 IU/L, a CRE [2] of 0.2 mg/dL and a DBIL [2] of 0.002 mg/dL. The GLC [2] was 185.4 mg/dL, the K [2] was 4.2 meq/L and the Na [2] was 142.4 meq/L. The RALB [2] was 2.9 g/dL, the TBIL [2] was 0.018 mg/dL and the TC [2] was 67.8 mg/dL. For the same compound, the TG [2] was 81 mg/dL, the TP [2] was 5.1 g/dL and the gamma-GTP [2] was 1.6 IU/L. The TERMINAL_BW (1 mg/kg, 6 h, dose level Low) was 211.5 g, the Bas [3] was 0% and the Eos [3] was 0.4%. It also gave a Fbg [3] of 292.8 mg/dL, a Hb [3] of 13 g/dL and a Ht [3] of 38.2%. The Lym [3] was 79.4%, the MCH [3] was 21.9 pg and the MCHC [3] was 34.2%. The MCV [3] was 64 fL, the Mono [3] was 3.4% and the PT [3] was 15.9 s. For the same compound, the Plat [3] was 117.6 x10_4/uL, the RBC [3] was 598.8 x10_4/ul and the Ret [3] was 7%. It also gave a KIDNEY_L (1 mg/kg, 6 h, dose level Low) of 1 g, a KIDNEY_R (1 mg/kg, 6 h, dose level Low) of 1 g and a KIDNEY_TOTAL (1 mg/kg, 6 h, dose level Low) of 1.9 g. It also gave an LIVER (1 mg/kg, 6 h, dose level Low) of 8.9 g, an ALP [4] of 1586.4 IU/L and an ALT [4] of 43.4 IU/L. It also gave an AST [4] of 78.8 IU/L, a CRE [4] of 0.1 mg/dL and a DBIL [4] of 0 mg/dL. It also gave a GLC [4] of 172 mg/dL, a K [4] of 4.2 meq/L and a Na [4] of 140.6 meq/L. It also gave an RALB [4] of 2.9 g/dL, a TBIL [4] of 0.022 mg/dL and a TC [4] of 71.8 mg/dL. It also gave a TG [4] of 62.6 mg/dL, a TP [4] of 5.2 g/dL and a gamma-GTP [4] of 1.6 IU/L. It also gave a TERMINAL_BW (1 mg/kg, 9 h, dose level Low) of 206.4 g, a Bas [5] of 0% and an Eos [5] of 1%. The Fbg [5] was 286.2 mg/dL, the Ht [5] was 38.8% and the Lym [5] was 74.8%. It also gave an MCH [5] of 21.3 pg, an MCHC [5] of 34.3% and an MCV [5] of 62.3 fL. The Mono [5] was 3%, the Neu [5] was 20.4% and the PT [5] was 16.4 s. For the same compound, the Plat [5] was 115.3 x10_4/uL, the RBC [5] was 624 x10_4/ul and the Ret [5] was 6.7%. It also gave a KIDNEY_L (1 mg/kg, 9 h, dose level Low) of 0.9 g, a KIDNEY_R (1 mg/kg, 9 h, dose level Low) of 0.9 g and a KIDNEY_TOTAL (1 mg/kg, 9 h, dose level Low) of 1.8 g. It also gave an LIVER (1 mg/kg, 9 h, dose level Low) of 8.1 g, an ALP [6] of 1211 IU/L and an AST [6] of 73.4 IU/L. It also gave a CRE [6] of 0.1 mg/dL, a DBIL [6] of 0 mg/dL and a GLC [6] of 180 mg/dL. It also gave a K [6] of 4.2 meq/L, an LDH [6] of 136.6 IU/L and a Na [6] of 140.2 meq/L. For the same compound, the RALB [6] was 3 g/dL, the TBIL [6] was 0.02 mg/dL and the TC [6] was 67.8 mg/dL. For the same compound, the TG [6] was 52.6 mg/dL, the TP [6] was 5.3 g/dL and the gamma-GTP [6] was 1.2 IU/L. The TERMINAL_BW (1 mg/kg, 24 h, dose level Low) was 218.4 g, the Bas [7] was 0% and the Eos [7] was 0.8%. For the same compound, the Fbg [7] was 307.6 mg/dL, the Ht [7] was 37.2% and the Lym [7] was 83.2%. It also gave an MCH [7] of 21.6 pg, an MCHC [7] of 35.8% and an MCV [7] of 60.4 fL. For the same compound, the Mono [7] was 3.4%, the PT [7] was 16.7 s and the Plat [7] was 116 x10_4/uL. The RBC [7] was 617.4 x10_4/ul, the Ret [7] was 6.2% and the KIDNEY_L (1 mg/kg, 24 h, dose level Low) was 0.9 g. It also gave a KIDNEY_R (1 mg/kg, 24 h, dose level Low) of 1 g, a KIDNEY_TOTAL (1 mg/kg, 24 h, dose level Low) of 1.9 g and an ALP [8] of 1436.4 IU/L. For the same compound, the AST [8] was 68.2 IU/L, the CRE [8] was 0.2 mg/dL and the DBIL [8] was 0.002 mg/dL. For the same compound, the GLC [8] was 191.8 mg/dL, the K [8] was 4.3 meq/L and the Na [8] was 142.4 meq/L. For the same compound, the RALB [8] was 3 g/dL, the TBIL [8] was 0.024 mg/dL and the TC [8] was 75.2 mg/dL. The TG [8] was 102.4 mg/dL, the TP [8] was 5.6 g/dL and the gamma-GTP [8] was 1.4 IU/L. It also gave a TERMINAL_BW (3 mg/kg, 3 h, dose level Middle) of 212.4 g and a Bas (3 mg/kg, 3 h, tissue Blood, dose level Middle) of 0%.
